Results reported in patent publication US10463644B2, “Uses of sesquiterpene lactone compounds and their derivatives in drugs preparation” (ACCENDATECH, priority 2013, dated 2019).

These compounds were tested on TNF-α secreted by synoviocyte (assay: Content of TNF-α in culture supernatant of synoviocyte of RA model rats given test compound). Settings: rat RA model, dose 30 mg/kg.2d; normal control 0.38 ± 0.027, NaCl 0.74 ± 0.098.
Format: in vivo
Outline: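 Test article is given to RA rats at 30 mg/kg.2d, and synoviocytes are isolated and cultured. Secreted TNF-α and PGE2 in the culture medium are measured by a shared protocol, while IL-1β release is measured by a different protocol. Comparison groups are saline (NaCl) and normal control rats.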

Row | Structure (SMILES) | Content of TNF-α in culture supernatant of synoviocyte (x ± s)
1 | C=C1C(=O)O[C@H]2[C@H]1CCC(C)=C1CC[C@@](C)(OC(=O)CCCc3cn(CCCCCCO)nn3)[C@@H]12 [Compound 21] | 0.56 ± 0.034 ng/mL
2 | C=C1C(=O)O[C@H]2[C@H]1CC[C@]1(C)O[C@@]13CC[C@@](C)(O)[C@H]23 [Compound 24] | 0.54 ± 0.057 ng/mL
3 | C=C1CC[C@H]2C(=C)CC[C@H]3C(=C)C(=O)O[C@@H]3[C@@H]12 [Compound 25] | 0.58 ± 0.056 ng/mL
4 | C=C1C(=O)O[C@@H]2[C@@H]3[C@@H](CCC34CC4)C3(CC[C@@H]12)CC3 [Compound 26] | 0.59 ± 0.051 ng/mL
5 | CN(C)C[C@@H]1C(=O)O[C@H]2[C@H]1CCC1(CC1)[C@@H]1CCC3(CC3)[C@H]21 [Compound 27] | 0.54 ± 0.066 ng/mL
6 | CCOC(=O)[C@@H]1CCCN1C[C@@H]1C(=O)O[C@H]2[C@H]1CCC1(CC1)[C@@H]1CCC3(CC3)[C@H]21 [Compound 29] | 0.66 ± 0.046 ng/mL
7 | CN(C)C[C@@H]1C(=O)O[C@H]2[C@H]1CCC1(CC1)[C@@H]1CCC3(CC3)[C@H]21 [Compound 35] | 0.57 ± 0.057 ng/mL
8 | [2H][C@@]1(CN(C)C)C(=O)O[C@@H]2[C@@H]3[C@@H](CCC34CC4)C3(CC[C@H]21)CC3 [Compound 46] | 0.56 ± 0.034 ng/mL
9 | C=C1C(=O)O[C@H]2[C@H]1CC[C@@](C)(OC)C1CC[C@@](C)(O)[C@@H]12 (stereo partly shown) [Compound 47] | 0.64 ± 0.062 ng/mL
10 | C=C1C(=O)O[C@@H]2[C@@H]3[C@@H](CC[C@@]3(C)O)C(=C)CC[C@@H]12 [Compound 48] | 0.62 ± 0.054 ng/mL
11 | C=C1C(=O)O[C@@H]2[C@@H]3[C@@H](CC[C@@]3(C)O)[C@](C)(O)CC[C@@H]12 [Compound 49] | 0.65 ± 0.046 ng/mL
12 | C=C1C(=O)O[C@@H]2[C@H]3C(C)=CC[C@@]34O[C@@]4(C)CC[C@@H]12 [Compound 50] | 0.52 ± 0.064 ng/mL

Same assay, conditions: rat RA model, dose 30 mg/kg.2d; normal control 0.38 ± 0.027, NaCl 0.74 ± 0.098; 30 mg/kg

Row | Structure (SMILES) | Content of TNF-α in culture supernatant of synoviocyte (x ± s)
13 | CC1=C2CC[C@@](C)(O)[C@@H]2[C@H]2OC(=O)[C@@H](CN(C)C)[C@@H]2CC1 [Compound 23] | 0.63 ± 0.063 ng/mL
